Reference: EP2527332A1, “4-Aryl-N-phenyl-1,3,5-triazin-2-amines containing a sulfoximine group as CDK9 inhibitors” (Bayer Intellectual Property GmbH, priority 2011, dated 2012)
Read-outs that look alike come from different tables or passages of the source.

Key:
HeLa/MaTu/ADR cell = assay: Proliferation assay (crystal violet), HeLa/MaTu/ADR; assay type: cell-based, human; conditions: HeLa/MaTu/ADR (multidrug-resistant), 4 days incubation, read-out: Inhibition of HeLa/MaTu/ADR cell proliferation IC50
Method: (§1) After 24 hours, the cells of one plate (zero-point plate) were stained with crystal violet (see below), while the medium of the other plates was replaced by fresh culture medium (200 µL), to which the test substances were added in various concentrations (0 µM, as well as in the range of 0.001-10 µM; the final concentration of the solvent dimethyl sulfoxide was 0.5%). The cells were incubated for 4 days in the presence of test substances. Cell proliferation was determined by staining the cells with crystal violet: the cells were fixed by adding 20 µL/measuring point of an 11% glutaric aldehyde solution for 15 minutes at room temperature. After three washing cycles of the fixed cells with water, the plates were dried at room temperature. The cells were stained by adding 100 µL/measuring point of a 0.1% crystal violet solution (pH 3.0). After three washing cycles of the stained cells with water, the plates were dried at room temperature. The dye was dissolved by adding 100 µL/measuring point of a 10% acetic acid solution. […] The change of cell number, in percent, was calculated by normalization of the measured values to the absorbance values of the zero-point plate (=0%) and the absorbance of the untreated (0 µM) cells (=100%). The IC50 values were determined by means of a 4 parameter fit using the company's own software.

HeLa cell = assay: Proliferation assay (crystal violet), HeLa; assay type: cell-based, human; conditions: 4 days incubation, read-out: Inhibition of HeLa cell proliferation IC50
Method: as §1

B 16F 10 cell = assay: Proliferation assay (crystal violet), B16F10; assay type: cell-based, mouse; conditions: B16F10, 4 days incubation, read-out: Inhibition of B 16F 10 cell proliferation IC50
Method: as §1

DU145 cell = assay: Proliferation assay (crystal violet), DU145; assay type: cell-based, human; conditions: DU145, 4 days incubation, read-out: Inhibition of DU145 cell proliferation IC50
Method: as §1

[1] = Equilibrium shake flask solubility assay; assay type: physicochemical; conditions: phosphate buffer pH 6.5, 24 hrs, room temperature; 1440 min
Method: 4. Equilibrium Shake Flask Solubility Assay:
The thermodynamic solubility of compounds in water was determined by an equilibrium shake flask method (see for example: E.H. Kerns, L. Di: Drug-like Properties: Concepts, Structure Design and Methods, 276-286, Burlington, MA, Academic Press, 2008). A saturated solution of the drug was prepared and the solution was mixed for 24 h to ensure that equilibrium was reached. The solution was centrifuged to remove the insoluble fraction and the concentration of the compound in solution was determined using a standard calibration curve.
To prepare the sample, 2 mg solid compound was weighed in a 4 mL glass vial. 1 mL phosphate buffer pH 6.5 was added. The suspension was stirred for 24 hrs at room temperature. The solution was centrifuged afterwards. To prepare the sample for the standard calibration, 2 mg solid sample was dissolved in 30 mL acetonitrile. After sonification the solution was diluted with water to 50 mL.. Sample and standards were quantified by HPLC with UV-detection. For each sample two injection volumes (5 and 50 µl) in triplicates were made. Three injection volumes (5 µl, 10 µl and 20 µl) were made for the standard.
The areas of sample- and standard injections as well as the calculation of the solubility value (in mg/l) were determined by using HPLC software (Waters Empower 2 FR).

H460 cell = assay: Proliferation assay (crystal violet), H460; assay type: cell-based; conditions: Homo sapiens, NCI-H460, 96 h; H460, 4 days incubation; read-out: Inhibition of H460 cell proliferation (activity range) IC50
Method: as §1

CACO-2 cell = assay: Proliferation assay (crystal violet), CACO-2; assay type: cell-based; conditions: Homo sapiens, 96 h; CACO-2, 4 days incubation; read-out: Inhibition of CACO-2 cell proliferation IC50
Method: as §1

Row | SMILES | IC50 (HeLa cell; Homo sapiens, 96 h) | IC50 (B 16F 10 cell; Mus musculus, B16-F10, 96 h) | IC50 (DU145 cell; Homo sapiens, DU-145, 96 h) | IC50 (H460 cell) | IC50 (HeLa/MaTu/ADR cell; Homo sapiens, 96 h) | IC50 (CACO-2 cell) | other results
1 | COc1cc(F)ccc1-c1ncnc(Nc2cccc(CS(C)(=N)=O)c2)n1 (single isomer, unassigned; (-)) [Compound 3, (-)-4-(4-Fluoro-2-methoxyphenyl)-N-{3-[(S-methylsulfonimidoyl)methyl]phenyl}-1,3,5-triazin-2-amine] | 1100 nM | 1000 nM | 740 nM |  |  |  | IC50 (HeLa/MaTu/ADR cell; Homo sapiens, HeLa, 96 h): 400 nM
2 | CCOC(=O)N=S(C)(=O)Cc1cccc(Nc2ncnc(-c3cc(F)c(F)cc3OC)n2)c1 (racemic) [Compound 9, (rac)-Ethyl [(3-{[4-(4,5-difluoro-2-methoxyphenyl)-1,3,5-triazin-2-yl]amino}benzyl)(methyl)oxido-λ^6-sulfanylidene]carbamate] | 400 nM |  |  |  |  |  | 
3 | COc1cc(F)ccc1-c1ncnc(Nc2cccc(CS(C)(=N)=O)c2)n1 (single isomer, unassigned; (+)) [Compound 4, (+)-4-(4-Fluoro-2-methoxyphenyl)-N-{3-[(S-methylsulfonimidoyl)methyl]phenyl}-1,3,5-triazin-2-amine] |  |  |  |  |  |  | IC50 (HeLa/MaTu/ADR cell): 440 nM; Solubilty in mg/l. (thermodynamic solubility in water) [1]: 479 µg/mL; IC50 (HeLa cell): 970 nM; IC50 (B 16F 10 cell): 1000 nM; IC50 (DU145 cell): 670 nM
4 | CCOC(=O)N=S(C)(=O)Cc1cccc(Nc2ncnc(-c3ccc(F)cc3OC)n2)c1 (racemic) [Compound 1, (rac)-Ethyl [(3-{[4-(4-fluoro-2-methoxyphenyl)-1,3,5-triazin-2-yl]amino}benzyl)(methyl)oxido-λ^6-sulfanylidene]carbamate] | 1000 nM | 360 nM | 390 nM | 360 nM | 380 nM | 390 nM | 
5 | CS(=N)(=O)Cc1cccc(Nc2ncnc(-c3ccc(F)cc3OCc3ccccc3)n2)c1 (racemic) [Compound 6, (rac)-4-[2-(Benzyloxy)-4-fluorophenyl]-N-{3-[(S-methylsulfonimidoyl)methyl]phenyl}-1,3,5-triazin-2-amine] | < 100 nM | 250 nM | 180 nM | 160 nM | 200 nM | 270 nM | 
6 | COc1cc(F)ccc1-c1ncnc(Nc2cccc(CS(C)(=N)=O)c2)n1 (racemic) [Compound 2, (rac)-4-(4-Fluoro-2-methoxyphenyl)-N-{3-[(S-methylsulfonimidoyl)methyl]phenyl}-1,3,5-triazin-2-amine] | 1100 nM |  |  |  |  |  | 
